{"source": "patent US9675612B2", "about": "“Substituted thiazolopyrimidines” (BAYER PHARMA AKTIENGESELLSCHAFT, priority 2013, dated 2017)", "biological_target": "human full-length MKNK1 (Homo sapiens (Human), UniProt Q9BUB5, T344D)", "sequence (Q9BUB5 other isoform, or with tags, fused parts or gaps T344D)": "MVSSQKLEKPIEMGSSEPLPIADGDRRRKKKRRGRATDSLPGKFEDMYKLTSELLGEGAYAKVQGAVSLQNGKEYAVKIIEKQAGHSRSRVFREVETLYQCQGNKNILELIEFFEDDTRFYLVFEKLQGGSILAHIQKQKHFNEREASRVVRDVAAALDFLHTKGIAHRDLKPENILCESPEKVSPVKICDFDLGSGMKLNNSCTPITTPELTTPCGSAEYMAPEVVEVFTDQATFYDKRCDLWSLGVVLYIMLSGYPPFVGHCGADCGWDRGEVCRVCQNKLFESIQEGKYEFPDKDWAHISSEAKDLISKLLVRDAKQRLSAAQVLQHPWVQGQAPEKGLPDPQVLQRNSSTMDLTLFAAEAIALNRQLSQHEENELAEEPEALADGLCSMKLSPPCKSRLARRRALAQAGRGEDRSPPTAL", "experiment": "MKNK1 kinase high ATP assay (TR-FRET)", "type": "biochemical", "settings": "high ATP (2 mM final), 15 min preincubation with MKNK1, TR-FRET", "procedure": "MKNK1 Kinase High ATP Assay\nMKNK1-inhibitory activity at high ATP of compounds of the present invention after their preincubation with MKNK1 was quantified employing the TR-FRET-based MKNK1 high ATP assay as described in the following paragraphs.\nAs substrate for the kinase reaction the biotinylated peptide biotin-Ahx-[…] (C-terminus in amide form) was used, which can be purchased e.g. from the company Biosyntan (Berlin-Buch, Germany).\nFor the assay 50 nL of a 100 fold concentrated solution of the test compound in DMSO was pipetted into a black low volume 384 well microtiter plate (Greiner Bio-One, Frickenhausen, Germany), 2 μL of a solution of MKNK1 in aqueous assay buffer [50 mM HEPES pH 7.5, 5 mM MgCl2, 1.0 mM dithiothreitol, 0.005% (v/v) Nonidet-P40 (Sigma)] was added and the mixture was incubated for 15 min at 22° C. to allow pre-binding of the test compounds to the enzyme before the start of the kinase reaction. Then the kinase reaction was started by the addition of 3 μL of a solution of adenosine-tri-phosphate (ATP, 3.3 mM=>final conc. in the 5 μL assay volume is 2 mM) and substrate (0.1 μM=>final conc. in the 5 μL assay volume is 0.06 μM) in assay buffer and the resulting mixture was incubated for a reaction time of 30 min at 22° C. The concentration of MKNK1 was adjusted depending of the activity of the enzyme lot and was chosen appropriate to have the assay in the linear range, typical concentrations were in the range of 0.003 μg/mL. The reaction was stopped by the addition of 5 μL of a solution of TR-FRET detection reagents (5 nM streptavidine-XL665 [Cisbio Bioassays, Codolet, France] and 1 nM anti-ribosomal protein S6 (pSer236)-antibody from Invitrogen [#44921G] and 1 nM LANCE EU-W1024 labeled ProteinG [Perkin-Elmer, product no. AD0071]) in an aqueous EDTA-solution (100 mM EDTA, 0.1% (w/v) bovine serum albumin in 50 mM HEPES pH 7.5).\nThe resulting mixture was incubated for 1 h at 22° C. to allow the formation of complex between the phosphorylated biotinylated peptide and the detection reagents. Subsequently the amount of phosphorylated substrate was evaluated by measurement of the resonance energy transfer from the Eu-chelate to the streptavidine-XL."}
{"smiles": "O=c1[nH]c2ccc(Nc3ncnc4sc(CC5CC5)nc34)cc2s1", "note": "[Example 1, 6-{[2-(Cyclopropylmethyl)[1,3]thiazolo[5,4-d]pyrimidin-7-yl]amino}-1,3-benzothiazol-2(3H)-one]", "values": [{"measurement": "IC50", "result": 37, "unit": "nM"}]}
{"smiles": "O=c1[nH]c2ccc(Nc3ncnc4sc(C5CCC5)nc34)cc2s1", "note": "[Example 2, 6-[(2-Cyclobutyl[1,3]thiazolo[5,4-d]pyrimidin-7-yl)amino]-1,3-benzothiazol-2(3H)-one]", "values": [{"measurement": "IC50", "result": 87, "unit": "nM"}]}
{"smiles": "COc1cc2[nH]ncc2cc1Nc1ncnc2sc(Cc3ccccc3)nc12", "note": "[Example 4, 2-Benzyl-N-(6-methoxy-1H-indazol-5-yl)[1,3]thiazolo[5,4-d]pyrimidin-7-amine]", "values": [{"measurement": "IC50", "result": 20, "unit": "nM"}]}
{"smiles": "COCc1nc2c(Nc3cc4cn[nH]c4cc3OC)ncnc2s1", "note": "[Example 5, N-(6-Methoxy-1H-indazol-5-yl)-2-(methoxymethyl)[1,3]thiazolo[5,4-d]pyrimidin-7-amine]", "values": [{"measurement": "IC50", "result": 25, "unit": "nM"}]}
{"smiles": "COc1cc2[nH]c(=O)sc2cc1Nc1ncnc2sc(C3CCCCC3)nc12", "note": "[Example 7, 6-[(2-Cyclohexyl[1,3]thiazolo[5,4-d]pyrimidin-7-yl)amino]-5-methoxy-1,3-benzothiazol-2(3H)-one]", "values": [{"measurement": "IC50", "result": 354, "unit": "nM"}]}
{"smiles": "c1nc(Nc2ccc3[nH]ncc3c2)c2nc(C3CCCCC3)sc2n1", "note": "[Example 8, 2-Cyclohexyl-N-(1H-indazol-5-yl)[1,3]thiazolo[5,4-d]pyrimidin-7-amine]", "values": [{"measurement": "IC50", "result": 56, "unit": "nM"}]}
{"smiles": "c1nc(Nc2ccc3[nH]ncc3c2)c2nc(CC3CC3)sc2n1", "note": "[Example 9, 2-(Cyclopropylmethyl)-N-(1H-indazol-5-yl)[1,3]thiazolo[5,4-d]pyrimidin-7-amine]", "values": [{"measurement": "IC50", "result": 36, "unit": "nM"}]}
{"smiles": "c1nc(Nc2ccc3[nH]ncc3c2)c2nc(C3CCC3)sc2n1", "note": "[Example 10, 2-Cyclobutyl-N-(1H-indazol-5-yl)[1,3]thiazolo[5,4-d]pyrimidin-7-amine]", "values": [{"measurement": "IC50", "result": 54, "unit": "nM"}]}
{"smiles": "c1ccc(Cc2nc3c(Nc4ccc5[nH]ncc5c4)ncnc3s2)cc1", "note": "[Example 11, 2-Benzyl-N-(1H-indazol-5-yl)[1,3]thiazolo[5,4-d]pyrimidin-7-amine]", "values": [{"measurement": "IC50", "result": 35, "unit": "nM"}]}
{"smiles": "CC1(O)CN(C(=O)CCc2nc3c(Nc4ccc5[nH]ncc5c4)ncnc3s2)C1", "note": "[Example 14, 1-(3-Hydroxy-3-methylazetidin-1-yl)-3-[7-(1H-indazol-5-ylamino)[1,3]thiazolo[5,4-d]pyrimidin-2-yl]propan-1-one]", "values": [{"measurement": "IC50", "result": 126, "unit": "nM"}]}
{"smiles": "COc1cc2[nH]ncc2cc1Nc1ncnc2scnc12", "note": "[Example 15, N-(6-Methoxy-1H-indazol-5-yl)[1,3]thiazolo[5,4-d]pyrimidin-7-amine]", "values": [{"measurement": "IC50", "result": 47, "unit": "nM"}]}
{"smiles": "c1nc(Nc2ccc3[nH]ncc3c2)c2ncsc2n1", "note": "[Example 16, N-(1H-Indazol-5-yl)[1,3]thiazolo[5,4-d]pyrimidin-7-amine]", "values": [{"measurement": "IC50", "result": 186, "unit": "nM"}]}
{"smiles": "O=c1[nH]c2ccc(Nc3ncnc4scnc34)cc2s1", "note": "[Example 19, 6-([1,3]Thiazolo[5,4-d]pyrimidin-7-ylamino)-1,3-benzothiazol-2(3H)-one]", "values": [{"measurement": "IC50", "result": 159, "unit": "nM"}]}
{"smiles": "COc1cc2[nH]ncc2cc1Nc1ncnc2sc(COCc3ccccc3)nc12", "note": "[Example 20, 2-[(Benzyloxy)methyl]-N-(6-methoxy-1H-indazol-5-yl)[1,3]thiazolo[5,4-d]pyrimidin-7-amine]", "values": [{"measurement": "IC50", "result": 36, "unit": "nM"}]}
{"smiles": "CN(C)C(=O)CCc1nc2c(Nc3ccc4[nH]ncc4c3)ncnc2s1", "note": "[Example 21, 3-[7-(1H-Indazol-5-ylamino)[1,3]thiazolo[5,4-d]pyrimidin-2-yl]-N,N-dimethylpropanamide]", "values": [{"measurement": "IC50", "result": 100, "unit": "nM"}]}
{"smiles": "COc1cc2[nH]ncc2cc1Nc1ncnc2sc(CCc3ccccc3)nc12", "note": "[Example 22, N-(6-Methoxy-1H-indazol-5-yl)-2-(2-phenylethyl)[1,3]thiazolo[5,4-d]pyrimidin-7-amine]", "values": [{"measurement": "IC50", "result": 38, "unit": "nM"}]}
{"smiles": "c1ccc(CCc2nc3c(Nc4ccc5[nH]ncc5c4)ncnc3s2)cc1", "note": "[Example 23, N-(1H-indazol-5-yl)-2-(2-phenylethyl)[1,3]thiazolo[5,4-d]pyrimidin-7-amine]", "values": [{"measurement": "IC50", "result": 51, "unit": "nM"}]}
{"smiles": "COc1cc2[nH]c(=O)sc2cc1Nc1ncnc2sc(CCc3ccccc3)nc12", "note": "[Example 25, 5-Methoxy-6-{[2-(2-phenylethyl)[1,3]thiazolo[5,4-d]pyrimidin-7-yl]amino}-1,3-benzothiazol-2(3H)-one]", "values": [{"measurement": "IC50", "result": 10000, "unit": "nM"}]}
{"smiles": "COc1cc2[nH]ncc2cc1Nc1ncnc2sc(CCCC(=O)N(C)C)nc12", "note": "[Example 26, 4-{7-[(6-Methoxy-1H-indazol-5-yl)amino][1,3]thiazolo[5,4-d]pyrimidin-2-yl}-N, N-dimethylbutanamide]", "values": [{"measurement": "IC50", "result": 85, "unit": "nM"}]}
{"smiles": "COc1cc2[nH]c(=O)sc2cc1Nc1ncnc2sc(C(=O)N(C)C)nc12", "note": "[Example 28, 7-[(5-Methoxy-2-oxo-2,3-dihydro-1,3-benzothiazol-6-yl)amino]-N,N-dimethyl[1,3]thiazolo[5,4-d]pyrimidine-2-carboxamide]", "values": [{"measurement": "IC50", "result": 1080, "unit": "nM"}]}
{"smiles": "CCOc1cc2[nH]ncc2cc1Nc1ncnc2sc(C(=O)N(C)C)nc12", "note": "[Example 30, 7-[(6-Ethoxy-1H-indazol-5-yl)amino]-N, N-dimethyl[1,3]thiazolo[5,4-d]pyrimidine-2-carboxamide]", "values": [{"measurement": "IC50", "result": 42, "unit": "nM"}]}
{"smiles": "O=C(c1nc2c(Nc3ccc4[nH]ncc4c3)ncnc2s1)N1CCCCC1", "note": "[Example 31, [7-(1H-Indazol-5-ylamino)[1,3]thiazolo[5,4-d]pyrimidin-2-yl](piperidin-1-yl)methanone]", "values": [{"measurement": "IC50", "result": 188, "unit": "nM"}]}
{"smiles": "O=C(c1nc2c(Nc3ccc4[nH]c(=O)sc4c3)ncnc2s1)N1CCCCC1", "note": "[Example 32, 6-{[2-(Piperidin-1-ylcarbonyl)[1,3]thiazolo[5,4-d]pyrimidin-7-yl]amino}-1,3-benzothiazol-2(3H)-one]", "values": [{"measurement": "IC50", "result": 137, "unit": "nM"}]}
{"smiles": "COc1cc2[nH]ncc2cc1Nc1ncnc2sc(C(=O)N3CCCCC3)nc12", "note": "[Example 33, {7-[(6-Methoxy-1H-indazol-5-yl)amino][1,3]thiazolo[5,4-d]pyrimidin-2-yl}(piperidin-1-yl)methanone]", "values": [{"measurement": "IC50", "result": 17, "unit": "nM"}]}
{"smiles": "CCOc1cc2[nH]ncc2cc1Nc1ncnc2sc(C(=O)N3CCCCC3)nc12", "note": "[Example 34, {7-[(6-Ethoxy-1H-indazol-5-yl)amino][1,3]thiazolo[5,4-d]pyrimidin-2-yl}(piperidin-1-yl)methanone]", "values": [{"measurement": "IC50", "result": 34, "unit": "nM"}]}
{"smiles": "CC(C)Oc1cc2[nH]ncc2cc1Nc1ncnc2sc(C(=O)N3CCCCC3)nc12", "note": "[Example 35, Piperidin-1-yl(7-{[6-(propan-2-yloxy)-1H-indazol-5-yl]amino}[1,3]thiazolo[5,4-d]pyrimidin-2-yl)methanone]", "values": [{"measurement": "IC50", "result": 102, "unit": "nM"}]}
{"smiles": "COc1cc2[nH]ncc2cc1Nc1ncnc2sc(C(=O)N(C)CC(=O)N(C)C)nc12", "note": "[Example 38, N-[2-(Dimethylamino)-2-oxoethyl]-7-[(6-methoxy-1H-indazol-5-yl)amino]-N-methyl[1,3]thiazolo[5,4-d]pyrimidine-2-carboxamide]", "values": [{"measurement": "IC50", "result": 136, "unit": "nM"}]}
{"smiles": "CN(C)C(=O)CCN(C)C(=O)c1nc2c(Nc3ccc4[nH]c(=O)sc4c3)ncnc2s1", "note": "[Example 41, N-[3-(Dimethylamino)-3-oxopropyl]-N-methyl-7-[(2-oxo-2,3-dihydro-1,3-benzothiazol-6-yl)amino][1,3]thiazolo[5,4-d]pyrimidine-2-carboxamide]", "values": [{"measurement": "IC50", "result": 2750, "unit": "nM"}]}
{"smiles": "CN(C)C(=O)c1nc2c(Nc3ccc4[nH]ncc4c3)ncnc2s1", "note": "[Example 43, 7-(1H-Indazol-5-ylamino)-N,N-dimethyl[1,3]thiazolo[5,4-d]pyrimidine-2-carboxamide]", "values": [{"measurement": "IC50", "result": 202, "unit": "nM"}]}
{"smiles": "COc1cc2[nH]ncc2cc1Nc1ncnc2sc(C(=O)N(C)CCC(=O)N(C)C)nc12", "note": "[Example 46, N-[3-(Dimethylamino)-3-oxopropyl]-7-[(6-methoxy-1H-indazol-5-yl)amino]-N-methyl[1,3]thiazolo[5,4-d]pyrimidine-2-carboxamide]", "values": [{"measurement": "IC50", "result": 184, "unit": "nM"}]}
